The results in this text go back to paper PMC2213614 (The Journal of Cell Biology, 2008).

In the test the target is Sec3N (GST-Sec3N, N terminus of Sec3, aa 1-320) (Saccharomyces cerevisiae, UniProt P33332). The test is classed as binding. To be noted: 25°C.
Sequence of Sec3N (GST-Sec3N, N terminus of Sec3, aa 1-320) (P33332 1-320 limits assumed): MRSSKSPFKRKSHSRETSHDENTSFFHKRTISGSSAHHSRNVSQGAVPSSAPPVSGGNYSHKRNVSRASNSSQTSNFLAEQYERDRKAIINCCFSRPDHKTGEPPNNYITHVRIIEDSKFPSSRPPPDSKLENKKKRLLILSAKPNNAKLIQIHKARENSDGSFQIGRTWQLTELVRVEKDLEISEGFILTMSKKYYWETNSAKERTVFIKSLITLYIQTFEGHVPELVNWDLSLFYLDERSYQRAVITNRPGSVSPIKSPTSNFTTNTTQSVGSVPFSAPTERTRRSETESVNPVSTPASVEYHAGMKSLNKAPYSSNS

The substance phosphatidylinositol 4,5-bisphosphate registered a Kd of 14.4 ± 4 µM.
